These are literature values, as cited in US20150038526A1, “FLUORINE-CONTAINING 5-[2-(PYRID-3-YL)-ETHYL]-2,3,4-TETRAHYDRO-1H-PYRIDO[4,3-B]INDOLES AS AGENTS FOR REDUCING UNCONTROLLED PROTEIN AGGREGATION” (FEDERALNOE GOSUDARSTVENNOE BUDZHETNOE UCHREZHDENIE NAUKI …, priority 2011, published 2015).

SMILES strings stand for the structures.

In the data set the test system is gamma-synuclein protein. The conditions noted are these: tissues of the nervous system of model animals.

As to `Cc1ccc2c(c1)c1c(n2CCc2ccc(C)nc2)CCN(C)C1` [Dimebon], the “formation and/or elimination of amyloid-like inclusions formed by gamma-synuclein” value was “modulates the molecular cellular processes of formation and/or elimination of pathological protein depositions”.
